According to PubChem BioAssay AID1259411 (Chemical Carcinogenesis Research Information System (CCRIS), 2018):
Calls of active or inactive are those of the source. How the calls were made is not given here.

System: rodent carcinogenicity bioassays, tumor incidence
Experiment: CCRIS carcinogenicity studies
Summary of the method: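 Archive of carcinogenicity, mutagenicity, tumor promotion and tumor inhibition results drawn from journals, NCI reports and other sources, expert-reviewed; covers 1985-2011 and is no longer updated.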

c1ccc2c(c1)cc1ccc3cccc4ccc2c1c34
carcinogen call (Species: FISH, Strain/Sex: MT. SHASTA RAINBOW TROUT/MALE, FEMALE, Route: TRANSCHORIONIC INJECTION, Dose: 0, 0.09, 0.9, 9 UG IN DMSO ADMINISTERED IN OVO APPROXIMATELY 2 DAYS PRIOR TO HATCHING (STUDY DURATION: 1 YR), Dose: 0, 0.09, 0.9, 9 UG IN DMSO ADMINISTERED IN OVO APPROXIMATELY 2 DAYS PRIOR TO HATCHING (STUDY DURATION: 1 YR)): inactive; negative | carcinogen call (Species: FISH, Strain/Sex: MT. SHASTA RAINBOW TROUT/MALE, FEMALE, Route: TRANSCHORIONIC INJECTION, Dose: 0, 4.5, 9, 18 UG IN DMSO ADMINISTERED IN OVO APPROXIMATELY 2 DAYS PRIOR TO HATCHING, Dose: 0, 4.5, 9, 18 UG IN DMSO ADMINISTERED IN OVO APPROXIMATELY 2 DAYS PRIOR TO HATCHING, Tumor Site: Type of Lesion: LIVER: TUMOR): active; positive | carcinogen call (Species: FISH, Strain/Sex: RAINBOW TROUT/MALE, FEMALE, Route: INTRAPERITONEAL, Dose: 0, 1 MG IN 0.4 ML PROPYLENE GLYCOL 1/MO FOR 12 MO BEGINNING AT 10 MO OF AGE (STUDY DURATION: 18 MO), Tumor Site: Type of Lesion: LIVER: CARCINOMA): active; positive | carcinogen call (Species: FISH, Strain/Sex: RAINBOW TROUT/MALE, FEMALE, Route: ORAL, Dose: 0, 1000 PPM IN DIET FOR 18 MO (STUDY DURATION: 18 MO), Tumor Site: Type of Lesion: LIVER: CARCINOMA): active; positive | carcinogen call (Species: FISH, Strain/Sex: SHEEPSHEAD MINNOW/MALE, FEMALE, Route: IMMERSION, Dose: 0, 2, 30, 200 PPB APPROXIMATE CONCENTRATIONS ADMINISTERED 1/WK FOR 6 OR 24 HR FOR 1 OR 2 WK (STUDY DURATION: 39 WK), Dose: 0, 2, 30): inactive; negative | carcinogen call (Species: HAMSTER, Route: GAVAGE, Tumor Site: Type of Lesion: FORESTOMACH: PAPILLOMA, CARCINOMA): active; positive | carcinogen call (Species: HAMSTER, Route: INTRATRACHEAL, Tumor Site: Type of Lesion: LUNG): active; positive | carcinogen call (Species: HAMSTER, Route: ORAL, Dose: 500 PPM IN DIET 4 D/WK FOR UP TO 14 MO, Tumor Site: Type of Lesion: ESOPHAGUS, FORESTOMACH, INTESTINES, Tumor Site: Type of Lesion: ESOPHAGUS, FORESTOMACH, INTESTINES): active; positive | carcinogen call (Species: HAMSTER, Route: SUBCUTANEOUS, Dose: 2.5 MG, 3 MO, Tumor Site: Type of Lesion: INJECTION SITE: SARCOMA): active; positive | carcinogen call (Species: HAMSTER, Route: SUBCUTANEOUS, Tumor Site: Type of Lesion: INJECTION SITE: SARCOMA): active; positive | carcinogen call (Species: HAMSTER, Strain/Sex: MALE,FEMALE, Route: INTRATRACHEAL, Dose: 0.25-2 MG, 1/WK FOR 30 WK, Tumor Site: Type of Lesion: RESPIRATORY TRACT): active; positive | carcinogen call (Species: HAMSTER, Strain/Sex: SYRIAN/FEMALE, Route: INTRATRACHEAL, Dose: 0, 1 MG IN 0.1 ML PHOSPHATE BUFFER 15/WK FOR 4 MO (STUDY DURATION: 443 D), Tumor Site: Type of Lesion: TRACHEA: PAPILLOMA OR CARCINOMA): active; positive | carcinogen call (Species: HAMSTER, Strain/Sex: SYRIAN/MALE,FEMALE, Route: SUBCUTANEOUS, Dose: 0.0005-80 MG, 10 DOSES, Tumor Site: Type of Lesion: INJECTION SITE: SARCOMA): active; positive | carcinogen call (Species: HAMSTER, Strain/Sex: SYRIAN/MALE, Route: GAVAGE, Dose: 2-5 MG 2/WK FOR 1-11 MO, Tumor Site: Type of Lesion: STOMACH: CARCINOMA, PAPILLOMA): active; positive | carcinogen call (Species: MONKEY, Route: INTRATRACHEAL, Dose: 3-15 MG, 1/WK, Tumor Site: Type of Lesion: LUNG: SQUAMOUS CARCINOMA): active; positive | carcinogen call (Species: MONKEY, Strain/Sex: TUPAIA GLIS/MALE,FEMALE, Route: SUBCUTANEOUS, Dose: 10 MG, SINGLE DOSE, Tumor Site: Type of Lesion: INJECTION SITE: SARCOMA): active; positive | carcinogen call (Species: MOUSE, Route: SUBCUTANEOUS, Tumor Site: Type of Lesion: INJECTION SITE: SARCOMA): active; positive | carcinogen call (Species: MOUSE, Strain/Sex: A/J/MALE, Route: INTRAPERITONEAL, Dose: 0, 10, 100 MG/KG BW IN TRICAPRYLIN ONCE AT 4-5 WK OF AGE (STUDY DURATION: 7-8 MO), Dose: 0, 10, 100 MG/KG BW IN TRICAPRYLIN ONCE AT 4-5 WK OF AGE (STUDY DURATION: 7-8 MO), Tumor Site: Type of Lesion: LUNG: TUMOR): active; positive | carcinogen call (Species: MOUSE, Strain/Sex: B6C3F1/FEMALE, Route: ORAL, Dose: 0, 5, 25, 100 PPM IN DIET FOR 2 YR (STUDY DURATION: 2 YR), Dose: 0, 5, 25, 100 PPM IN DIET FOR 2 YR (STUDY DURATION: 2 YR), Tumor Site: Type of Lesion: FORESTOMACH: PAPILLOMA OR CARCINOMA, ESOPHAGUS: PAPILLOMA OR CARCINOMA, TONGUE: PAPILLOMA OR CARCINOMA, Tumor Site: Type of Lesion: FORESTOMACH: PAPILLOMA OR CARCINOMA, ESOPHAGUS: PAPILLOMA OR CARCINOMA, TONGUE: PAPILLOMA OR CARCINOMA): active; positive | carcinogen call (Species: MOUSE, Strain/Sex: B6C3F1/MALE, Route: INTRAPERITONEAL, Dose: 0, 0.005, 0.015 UMOL/G ONCE AT 12 DAYS OF AGE (STUDY DURATION: 10 MO), Dose: 0, 0.005, 0.015 UMOL/G ONCE AT 12 DAYS OF AGE (STUDY DURATION: 10 MO), Tumor Site: Type of Lesion: LIVER: HEPATOMA): active; positive | carcinogen call (Species: MOUSE, Strain/Sex: B6C3F1/MALE, Route: INTRAPERITONEAL, Dose: 0, 125, 250, 375 UG ADMINISTERED TO 15-DAY OLD MICE ONCE (STUDY DURATION: 52 WK), Dose: 0, 125, 250, 375 UG ADMINISTERED TO 15-DAY OLD MICE ONCE (STUDY DURATION: 52 WK), Tumor Site: Type of Lesion: LIVER: TUMOR): active; positive
